Results from PubChem BioAssay (NCI).
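Each compound was tested at five concentrations against cells in 96-well plates for 48 hours. The concentration for full growth arrest is given as TGI.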

Legend:
Test in all cases: NCI anticancer screen, dose series, 48 h
786-0 renal = test system: 786-0 renal
A498 renal = test system: A498 renal
A549 NSCLC = test system: A549 NSCLC
ACHN renal = test system: ACHN renal
BT-549 breast = test system: BT-549 breast
CAKI-1 renal = test system: CAKI-1 renal
CCRF-CEM leukemia = test system: CCRF-CEM leukemia
COLO 205 colon = test system: COLO 205 colon
DU-145 prostate = test system: DU-145 prostate
EKVX NSCLC = test system: EKVX NSCLC
HCC-2998 colon = test system: HCC-2998 colon
HCT-116 colon = test system: HCT-116 colon
HCT-15 colon = test system: HCT-15 colon
HL-60(TB) leukemia = test system: HL-60(TB) leukemia
HOP-62 NSCLC = test system: HOP-62 NSCLC
HOP-92 NSCLC = test system: HOP-92 NSCLC
HS 578T breast = test system: HS 578T breast
HT29 colon = test system: HT29 colon
IGROV1 ovarian = test system: IGROV1 ovarian
K-562 leukemia = test system: K-562 leukemia
KM12 colon = test system: KM12 colon
LOX IMVI melanoma = test system: LOX IMVI melanoma
M14 melanoma = test system: M14 melanoma
MALME-3M melanoma = test system: MALME-3M melanoma
MCF7 breast = test system: MCF7 breast
MDA-MB-231 breast = test system: MDA-MB-231 breast
MDA-MB-435 = test system: MDA-MB-435
MDA-N = test system: MDA-N
MOLT-4 leukemia = test system: MOLT-4 leukemia
NCI-H226 lung = test system: NCI-H226 lung
NCI-H23 lung = test system: NCI-H23 lung
NCI-H460 lung = test system: NCI-H460 lung
NCI-H522 lung = test system: NCI-H522 lung
NCI/ADR-RES ovarian = test system: NCI/ADR-RES ovarian
OVCAR-3 ovarian = test system: OVCAR-3 ovarian
OVCAR-4 ovarian = test system: OVCAR-4 ovarian
OVCAR-5 ovarian = test system: OVCAR-5 ovarian
OVCAR-8 ovarian = test system: OVCAR-8 ovarian
PC-3 prostate = test system: PC-3 prostate
RPMI-8226 leukemia = test system: RPMI-8226 leukemia
RXF 393 renal = test system: RXF 393 renal
SF-268 CNS = test system: SF-268 CNS
SF-295 CNS = test system: SF-295 CNS
SF-539 CNS = test system: SF-539 CNS
SK-MEL-2 melanoma = test system: SK-MEL-2 melanoma
SK-MEL-28 melanoma = test system: SK-MEL-28 melanoma
SK-MEL-5 melanoma = test system: SK-MEL-5 melanoma
SK-OV-3 ovarian = test system: SK-OV-3 ovarian
SN12C renal = test system: SN12C renal
SNB-19 CNS = test system: SNB-19 CNS
SNB-75 CNS = test system: SNB-75 CNS
SR leukemia = test system: SR leukemia
SW-620 colon = test system: SW-620 colon
T-47D breast = test system: T-47D breast
TK-10 renal = test system: TK-10 renal
U251 CNS = test system: U251 CNS
UACC-257 melanoma = test system: UACC-257 melanoma
UACC-62 melanoma = test system: UACC-62 melanoma
UO-31 renal = test system: UO-31 renal
DLD-1 colon = test system: DLD-1 colon
DMS 114 small cell lung = test system: DMS 114 small cell lung
HOP-18 NSCLC = test system: HOP-18 NSCLC
KM20L2 colon = test system: KM20L2 colon
LXFL 529 NSCLC = test system: LXFL 529 NSCLC
M19-MEL melanoma = test system: M19-MEL melanoma
SNB-78 CNS = test system: SNB-78 CNS

Compound: CC(C)=CCC[C@](C)(O)[C@H]1CC[C@]2(C)[C@@H]1[C@H](O)C[C@@H]1[C@@]3(C)CC[C@H](O[C@@H]4O[C@H](CO)[C@@H](O)[C@H](O)[C@H]4O)C(C)(C)[C@@H]3CC[C@]12C
- TGI (786-0 renal): 36 µM
- TGI (A498 renal): 35.4 µM
- TGI (A549 NSCLC): 37.7 µM
- TGI (ACHN renal): 32.9 µM
- TGI (BT-549 breast): 34.3 µM
- TGI (CAKI-1 renal): 34.2 µM
- TGI (CCRF-CEM leukemia): 43.8 µM
- TGI (COLO 205 colon): 37.3 µM
- TGI (DU-145 prostate): 35.1 µM
- TGI (EKVX NSCLC): 39.4 µM
- TGI (HCC-2998 colon): 49.4 µM
- TGI (HCT-116 colon): 41.2 µM
- TGI (HCT-15 colon): 32.8 µM
- TGI (HL-60(TB) leukemia): 45.8 µM
- TGI (HOP-62 NSCLC): 47.8 µM
- TGI (HOP-92 NSCLC): 33.7 µM
- TGI (HS 578T breast): 47 µM
- TGI (HT29 colon): 32.5 µM
- TGI (IGROV1 ovarian): 29.8 µM
- TGI (K-562 leukemia): 38.1 µM
- TGI (KM12 colon): 33.3 µM
- TGI (LOX IMVI melanoma): 91.5 µM
- TGI (M14 melanoma): 46 µM
- TGI (MALME-3M melanoma): 34.6 µM
- TGI (MCF7 breast): 32.2 µM
- TGI (MDA-MB-231 breast): 36.4 µM
- TGI (MDA-MB-435): 36.1 µM
- TGI (MDA-N): 36.3 µM
- TGI (MOLT-4 leukemia): 34.8 µM
- TGI (NCI-H226 lung): 34.6 µM
- TGI (NCI-H23 lung): 38 µM
- TGI (NCI-H460 lung): 30.2 µM
- TGI (NCI-H522 lung): 31.9 µM
- TGI (NCI/ADR-RES ovarian): 55.1 µM
- TGI (OVCAR-3 ovarian): 32 µM
- TGI (OVCAR-4 ovarian): 38.1 µM
- TGI (OVCAR-5 ovarian): 49.3 µM
- TGI (OVCAR-8 ovarian): 33.6 µM
- TGI (PC-3 prostate): 31.9 µM
- TGI (RPMI-8226 leukemia): 38.8 µM
- TGI (RXF 393 renal): 32.2 µM
- TGI (SF-268 CNS): 29.3 µM
- TGI (SF-295 CNS): 39.6 µM
- TGI (SF-539 CNS): 38.8 µM
- TGI (SK-MEL-2 melanoma): 29.7 µM
- TGI (SK-MEL-28 melanoma): 34.8 µM
- TGI (SK-MEL-5 melanoma): 32.1 µM
- TGI (SK-OV-3 ovarian): 33 µM
- TGI (SN12C renal): 32.9 µM
- TGI (SNB-19 CNS): 35.4 µM
- TGI (SNB-75 CNS): 33.5 µM
- TGI (SR leukemia): 28.8 µM
- TGI (SW-620 colon): 36.6 µM
- TGI (T-47D breast): 34 µM
- TGI (TK-10 renal): 39.6 µM
- TGI (U251 CNS): 35.2 µM
- TGI (UACC-257 melanoma): 41.1 µM
- TGI (UACC-62 melanoma): 31 µM
- TGI (UO-31 renal): 31.1 µM

Compound: O=c1c2cc(Br)ccc2[nH]c(=S)n1-c1ccc(Br)cc1
- TGI (786-0 renal): > 100 µM
- TGI (A498 renal): > 100 µM
- TGI (A549 NSCLC): > 100 µM
- TGI (ACHN renal): > 100 µM
- TGI (COLO 205 colon): > 100 µM
- TGI (DLD-1 colon): > 100 µM
- TGI (DMS 114 small cell lung): > 100 µM
- TGI (EKVX NSCLC): > 100 µM
- TGI (HCC-2998 colon): > 100 µM
- TGI (HCT-116 colon): > 100 µM
- TGI (HCT-15 colon): > 100 µM
- TGI (HL-60(TB) leukemia): > 100 µM
- TGI (HOP-18 NSCLC): > 100 µM
- TGI (HOP-62 NSCLC): > 100 µM
- TGI (HOP-92 NSCLC): 75.7 µM
- TGI (HT29 colon): > 100 µM
- TGI (IGROV1 ovarian): > 100 µM
- TGI (K-562 leukemia): > 100 µM
- TGI (KM12 colon): > 100 µM
- TGI (KM20L2 colon): > 100 µM
- TGI (LOX IMVI melanoma): > 100 µM
- TGI (LXFL 529 NSCLC): > 100 µM
- TGI (M19-MEL melanoma): > 100 µM
- TGI (MALME-3M melanoma): > 100 µM
- TGI (MOLT-4 leukemia): > 100 µM
- TGI (NCI-H226 lung): > 100 µM
- TGI (NCI-H23 lung): > 100 µM
- TGI (NCI-H460 lung): > 100 µM
- TGI (NCI-H522 lung): > 100 µM
- TGI (OVCAR-3 ovarian): > 100 µM
- TGI (OVCAR-4 ovarian): > 100 µM
- TGI (OVCAR-8 ovarian): > 100 µM
- TGI (RPMI-8226 leukemia): > 100 µM
- TGI (RXF 393 renal): > 100 µM
- TGI (SF-268 CNS): > 100 µM
- TGI (SF-295 CNS): > 100 µM
- TGI (SF-539 CNS): > 100 µM
- TGI (SK-MEL-2 melanoma): > 100 µM
- TGI (SK-MEL-28 melanoma): > 100 µM
- TGI (SN12C renal): > 100 µM
- TGI (SNB-19 CNS): > 100 µM
- TGI (SNB-75 CNS): 41 µM
- TGI (SNB-78 CNS): > 100 µM
- TGI (SR leukemia): > 100 µM
- TGI (SW-620 colon): > 100 µM
- TGI (TK-10 renal): > 100 µM
- TGI (U251 CNS): > 100 µM
- TGI (UACC-257 melanoma): > 100 µM
- TGI (UO-31 renal): > 100 µM

Compound: C[C@@H](C(=O)O)c1ccc(-c2ccccc2)c(F)c1
- TGI (786-0 renal): > 100 µM
- TGI (A498 renal): > 100 µM
- TGI (A549 NSCLC): > 100 µM
- TGI (ACHN renal): > 100 µM
- TGI (BT-549 breast): > 100 µM
- TGI (CAKI-1 renal): > 100 µM
- TGI (CCRF-CEM leukemia): > 100 µM
- TGI (COLO 205 colon): > 100 µM
- TGI (DU-145 prostate): > 100 µM
- TGI (EKVX NSCLC): > 100 µM
- TGI (HCC-2998 colon): > 100 µM
- TGI (HCT-116 colon): > 100 µM
- TGI (HCT-15 colon): > 100 µM
- TGI (HL-60(TB) leukemia): > 100 µM
- TGI (HOP-62 NSCLC): > 100 µM
- TGI (HOP-92 NSCLC): > 100 µM
- TGI (HS 578T breast): > 100 µM
- TGI (HT29 colon): > 100 µM
- TGI (IGROV1 ovarian): > 100 µM
- TGI (K-562 leukemia): > 100 µM
- TGI (KM12 colon): > 100 µM
- TGI (LOX IMVI melanoma): > 100 µM
- TGI (M14 melanoma): > 100 µM
- TGI (MALME-3M melanoma): > 100 µM
- TGI (MCF7 breast): > 100 µM
- TGI (MDA-MB-231 breast): > 100 µM
- TGI (MDA-MB-435): > 100 µM
- TGI (MDA-N): > 100 µM
- TGI (MOLT-4 leukemia): > 100 µM
- TGI (NCI-H226 lung): > 100 µM
- TGI (NCI-H23 lung): > 100 µM
- TGI (NCI-H460 lung): > 100 µM
- TGI (NCI-H522 lung): > 100 µM
- TGI (NCI/ADR-RES ovarian): > 100 µM
- TGI (OVCAR-3 ovarian): > 100 µM
- TGI (OVCAR-4 ovarian): > 100 µM
- TGI (OVCAR-5 ovarian): > 100 µM
- TGI (OVCAR-8 ovarian): > 100 µM
- TGI (PC-3 prostate): > 100 µM
- TGI (RPMI-8226 leukemia): > 100 µM
- TGI (RXF 393 renal): > 100 µM
- TGI (SF-268 CNS): > 100 µM
- TGI (SF-295 CNS): > 100 µM
- TGI (SF-539 CNS): > 100 µM
- TGI (SK-MEL-2 melanoma): > 100 µM
- TGI (SK-MEL-28 melanoma): > 100 µM
- TGI (SK-MEL-5 melanoma): > 100 µM
- TGI (SK-OV-3 ovarian): > 100 µM
- TGI (SN12C renal): > 100 µM
- TGI (SNB-19 CNS): > 100 µM
- TGI (SNB-75 CNS): > 100 µM
- TGI (SR leukemia): > 100 µM
- TGI (SW-620 colon): > 100 µM
- TGI (T-47D breast): > 100 µM
- TGI (TK-10 renal): > 100 µM
- TGI (U251 CNS): > 100 µM
- TGI (UACC-257 melanoma): > 100 µM
- TGI (UACC-62 melanoma): > 100 µM
- TGI (UO-31 renal): > 100 µM
